In ChEMBL document CHEMBL1126512, “Synthesis and antitumor evaluation of water soluble taxol phosphates” (Bioorg Med Chem Lett, 1993):
Converted amounts (≈) assume the structure as drawn.

Columns and labels:
Mus musculus [1] = experiment: Antitumor activity against M109 tumor murine lung carcinoma infected mice after ip administration using DMSO an water as vehicle at a dose of 30 mg/kg/inj; assay type: functional; details: route intraperitoneal
Mus musculus [2] = experiment: Antitumor activity against M109 tumor murine lung carcinoma infected mice after ip administration using DMSO an saline as vehicle at a dose of 50 mg/kg/inj; assay type: functional; details: route intraperitoneal
Mus musculus [3] = experiment: Antitumor activity against M109 tumor murine lung carcinoma infected mice after ip administration using DMSO an water as vehicle at a dose of 25 mg/kg/inj; assay type: functional; details: route intraperitoneal
Mus musculus [4] = experiment: Antitumor activity against M109 tumor murine lung carcinoma infected mice after ip administration using DMSO an saline as vehicle at a dose of 30 mg/kg/inj; assay type: functional; details: route intraperitoneal
[5] = Solubility was determined; value ranges from 6-7; assay type: physicochemical
Mus musculus [6] = experiment: Antitumor activity against M109 tumor murine lung carcinoma infected mice after ip administration using DMSO an saline as vehicle at a dose of 10 mg/kg/inj; assay type: functional; details: route intraperitoneal
[7] = Solubility was determined; assay type: physicochemical
Mus musculus [8] = experiment: Antitumor activity against M109 tumor murine lung carcinoma infected mice after ip administration using DMSO an saline as vehicle at a dose of 25 mg/kg/inj; 1/6 mice cured; assay type: functional; details: route intraperitoneal
Mus musculus [9] = experiment: Antitumor activity against M109 tumor murine lung carcinoma infected mice after ip administration using DMSO an water as vehicle at a dose of 25 mg/kg/inj; 1/6 mice cured; assay type: functional; details: route intraperitoneal
Mus musculus [10] = experiment: Antitumor activity against M109 tumor murine lung carcinoma infected mice after ip administration using DMSO an water as vehicle at a dose of 10 mg/kg/inj; assay type: functional; details: route intraperitoneal
Mus musculus [11] = experiment: Antitumor activity against M109 tumor murine lung carcinoma infected mice after ip administration using DMSO an water as vehicle at a dose of 50 mg/kg/inj; assay type: functional; details: route intraperitoneal

CC(=O)O[C@H]1C(=O)[C@]2(C)[C@@H](OP(=O)([O-])[O-])C[C@H]3OC[C@@]3(OC(C)=O)[C@H]2[C@H](OC(=O)c2ccccc2)[C@]2(O)C[C@H](OC(=O)[C@H](O)[C@@H](NC(=O)c3ccccc3)c3ccccc3)C(C)=C1C2(C)C.[Na+].[Na+]
Max T/C (Mus musculus [1]): 123

CC(=O)O[C@H]1C(=O)[C@@]2(C)[C@H]([C@H](OC(=O)c3ccccc3)[C@]3(O)C[C@H](OC(=O)[C@H](OP(=O)(OCc4ccccc4)OCc4ccccc4)[C@@H](NC(=O)c4ccccc4)c4ccccc4)C(C)=C1C3(C)C)[C@]1(OC(C)=O)CO[C@@H]1C[C@@H]2O
Max T/C (Mus musculus [2]): 107

CC(=O)O[C@H]1C(=O)[C@@]2(C)[C@H]([C@H](OC(=O)c3ccccc3)[C@]3(O)C[C@H](OC(=O)[C@H](OP(=O)([O-])[O-])[C@@H](NC(=O)c4ccccc4)c4ccccc4)C(C)=C1C3(C)C)[C@]1(OC(C)=O)CO[C@@H]1C[C@@H]2O.[Na+].[Na+]
Max T/C (Mus musculus [3]): 140

CC(=O)O[C@H]1C(=O)[C@]2(C)[C@@H](OP(=O)([O-])[O-])C[C@H]3OC[C@@]3(OC(C)=O)[C@H]2[C@H](OC(=O)c2ccccc2)[C@]2(O)C[C@H](OC(=O)[C@H](OP(=O)([O-])[O-])[C@@H](NC(=O)c3ccccc3)c3ccccc3)C(C)=C1C2(C)C.[Na+].[Na+].[Na+].[Na+]
Max T/C (Mus musculus [4]): 103

CC(=O)O[C@@]12CO[C@@H]1C[C@H](O)[C@@]1(C)C(=O)[C@H](O)C3=C(C)[C@@H](OC(=O)[C@H](O)[C@@H](NC(=O)OC(C)(C)C)c4ccccc4)C[C@@](O)([C@@H](OC(=O)c4ccccc4)[C@H]21)C3(C)C.O.O.O [DOCETAXEL]
solubility [5]: 6 µg/mL

CC(=O)O[C@H]1C(=O)[C@@]2(C)[C@H]([C@H](OC(=O)c3ccccc3)[C@]3(O)C[C@H](OC(=O)[C@H](O)[C@@H](NC(=O)c4ccccc4)c4ccccc4)C(C)=C1C3(C)C)[C@]1(OC(C)=O)CO[C@@H]1C[C@@H]2O [PACLITAXEL]
Max T/C (Mus musculus [6]): 190
solubility [7]: 0.25 µg/mL (≈ 0.293 µM)
Max T/C (Mus musculus [8]): 240
Max T/C (Mus musculus [2]): 270
Max T/C (Mus musculus [9]): 240
Max T/C (Mus musculus [10]): 190
Max T/C (Mus musculus [11]): 270
